In US8501446B2 (Vertex Pharmaceuticals Incorporated, priority 2004, dated 2013):

Tests used:
[1] = target: T1, full length Aurora-A (AA 1-403) (Homo sapiens, UniProt O14965); assay: Aurora-A inhibition assay, standard coupled enzyme system; type: biochemical; settings: average Ki if more than one value determined
T1 construct: full length Aurora-A (AA 1-403)
T1 sequence (O14965 1-403): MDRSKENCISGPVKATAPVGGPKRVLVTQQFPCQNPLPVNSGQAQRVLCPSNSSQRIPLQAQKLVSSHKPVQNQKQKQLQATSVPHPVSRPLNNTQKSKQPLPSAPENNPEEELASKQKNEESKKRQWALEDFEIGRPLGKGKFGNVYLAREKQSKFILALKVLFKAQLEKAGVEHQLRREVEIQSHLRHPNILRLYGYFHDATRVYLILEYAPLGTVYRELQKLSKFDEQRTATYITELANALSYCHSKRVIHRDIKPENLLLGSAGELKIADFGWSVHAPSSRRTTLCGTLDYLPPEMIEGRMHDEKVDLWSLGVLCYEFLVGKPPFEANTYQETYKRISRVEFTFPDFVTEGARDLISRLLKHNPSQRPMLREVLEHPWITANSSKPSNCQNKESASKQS
Experimental: Compounds were screened for their ability to inhibit full length Aurora-A (AA 1-403) activity using a standard coupled enzyme system (Fox et al., Protein Sci. 7, pp. 2249 (1998)). Reactions were carried out in a solution containing 100 mM HEPES (pH 7.5), 10 mM MgCl2, 25 mM NaCl, 300 μM NADH, 1 mM DTT and 3% DMSO. Final substrate concentrations in the assay were 200 μM ATP (Sigma Chemicals, St Louis, Mo.) and 800 μM peptide (LRRASLG, American Peptide, Sunnyvale, Calif.). Reactions were carried out at 30° C. and 35 nM Aurora-A. Final concentrations of the components of the coupled enzyme system were 2.5 mM phosphoenolpyruvate, 200 μM NADH, 60 μg/ml pyruvate kinase and 20 μg/ml lactate dehydrogenase.
An assay stock buffer solution was prepared containing all of the reagents listed above with the exception of ATP and the test compound of interest. The assay stock buffer solution (60 μl) was incubated in a 96 well plate with 2 μl of the test compound of interest at final concentrations spanning 0.002 μM to 30 μM at 30° C. for 10 min. Typically, a 12 point titration was conducted by preparing serial dilutions (from 1 mM compound stocks) with DMSO of the test compounds in daughter plates. The reaction was initiated by the addition of 5 μl of ATP (final concentration 200 μM). Rates of reaction were obtained using a Molecular Devices Spectramax plate reader (Sunnyvale, Calif.) over 10 min at 30° C. The Ki values were determined from the rate data as a function of inhibitor concentration using computerized nonlinear regression (Prism 3.0, Graphpad Software, San Diego, Calif.). Aurora-C activity was screened in a similar manner using Aurora-C protein. Aurora-B activity was screened using a radioactive assay, such as described in Examples 1 and 2, but using Aurora-B protein.

[2] = target: T2, ROCK I (AA 6-553) (Homo sapiens, UniProt Q13464); assay: ROCK inhibition assay, standard coupled enzyme system ("Enzyme"); type: biochemical; settings: enzyme-linked assay
T2 construct: ROCK I (AA 6-553)
Experimental: Compounds were screened for their ability to inhibit ROCK I (AA 6-553) activity using a standard coupled enzyme system (Fox et al. (1998) Protein Sci. 7, 2249). Reactions were carried out in a solution containing 100 mM HEPES (pH 7.5), 10 mM MgCl2, 25 mM NaCl, 2 mM DTT and 1.5% DMSO. Final substrate concentrations in the assay were 45 μM ATP (Sigma Chemicals, St Louis, Mo.) and 200 μM peptide (American Peptide, Sunnyvale, Calif.). Reactions were carried out at 30° C. and 45 nM ROCK L. Final concentrations of the components of the coupled enzyme system were 2.5 mM phosphoenolpyruvate, 350 μM NADH, 30 μg/ml pyruvate kinase and 10 μg/ml lactate dehydrogenase.

T2 sequence (Q13464 6-553, species assumed): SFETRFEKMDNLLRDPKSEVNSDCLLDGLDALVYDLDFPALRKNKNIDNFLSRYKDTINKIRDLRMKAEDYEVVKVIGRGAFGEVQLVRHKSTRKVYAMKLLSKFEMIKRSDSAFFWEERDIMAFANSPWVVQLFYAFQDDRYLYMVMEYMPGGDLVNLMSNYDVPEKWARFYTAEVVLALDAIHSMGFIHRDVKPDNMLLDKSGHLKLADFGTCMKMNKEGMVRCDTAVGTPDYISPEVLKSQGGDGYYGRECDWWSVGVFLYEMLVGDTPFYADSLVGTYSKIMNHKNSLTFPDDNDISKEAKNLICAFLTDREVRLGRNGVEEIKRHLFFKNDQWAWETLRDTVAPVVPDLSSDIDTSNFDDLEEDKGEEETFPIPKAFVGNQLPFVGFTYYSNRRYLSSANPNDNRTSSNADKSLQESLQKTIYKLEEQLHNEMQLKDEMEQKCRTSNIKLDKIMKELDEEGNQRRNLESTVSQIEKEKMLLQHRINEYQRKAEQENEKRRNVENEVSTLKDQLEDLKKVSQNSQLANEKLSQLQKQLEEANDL

| Structure (SMILES) | Ki [1] | Ki [2] |
| --- | --- | --- |
| Nc1cccc(-c2c[nH]c3ncc(-c4ccccc4)cc23)n1 [Compound 268] | 500 to 5000 nM |  |
| CC(C)(C)OC(=O)N(Cc1ccc(S(C)(=O)=O)cc1)c1cccc(-c2c[nH]c3ncc(Cl)cc23)n1 [Compound 245] | < 500 nM |  |
| C[C@H](Nc1nc(-c2c[nH]c3ncc(C(=O)O)cc23)ncc1F)c1ccc(F)cc1 [Compound 350] | 500 to 5000 nM |  |
| C[C@H](Nc1nc(-c2c[nH]c3ncc(Cl)cc23)ncc1F)c1cccc(OCCN(C)C)c1 [Compound 320] | < 500 nM |  |
| O=C(Nc1cccc(-c2c[nH]c3ncc(Cl)cc23)n1)C1CCCCC1 [Compound 288] | < 500 nM |  |
| C[C@H](Nc1nc(-c2c[nH]c3ncc(Cl)cc23)ncc1F)C(=O)NCCC(=O)O [Compound 466] | 500 to 5000 nM |  |
| CCOC(=O)Nc1cnc2[nH]cc(-c3ncc(F)c(N[C@@H](C)c4ccc(F)cc4)n3)c2c1 [Compound 358] | 500 to 5000 nM |  |
| CC(C)NC(=O)CCNC(=O)[C@H](C)Nc1nc(-c2c[nH]c3ncc(Cl)cc23)ncc1F [Compound 468] | < 500 nM |  |
| OCc1cc(-c2c[nH]c3ncc(Cl)cc23)nc(N2CCNCC2)c1 [Compound 405] | < 500 nM |  |
| Fc1cnc(-c2c[nH]c3ncc(Cl)cc23)nc1OCc1ccc(Cl)cc1 [Compound 314] | 500 to 5000 nM |  |
| CC(C)NS(=O)(=O)CCNC(=O)[C@H](C)Nc1nc(-c2c[nH]c3ncc(Cl)cc23)ncc1F [Compound 469] | < 500 nM |  |
| NC(=O)c1ccc(-c2c[nH]c3ncc(Sc4ccccc4)cc23)cc1 [Compound 304] |  | 500 to 5000 nM |
| CC(=O)Nc1cccc(-c2c[nH]c3ncc(Cl)cc23)n1 [Compound 283] | 500 to 5000 nM |  |
| Clc1cnc2[nH]cc(-c3cccc(N4CCCC4)n3)c2c1 [Compound 241] | 500 to 5000 nM |  |
| C[Si](C)(C)c1[nH]c2ncc(-c3ccccc3)cc2c1-c1ccccc1 [Compound 210] | 500 to 5000 nM |  |
| CN1CCC(Nc2nc(-c3c[nH]c4ncc(Cl)cc34)ncc2F)C1 (stereo not drawn) [Compound 352] | < 500 nM |  |
| CS(=O)(=O)Nc1ccc(-c2c[nH]c3ncc(-c4ccccc4)cc23)cc1 [Compound 234] | < 500 nM |  |
| O=C(Nc1cccc(-c2c[nH]c3ncc(Cl)cc23)n1)c1ccccc1Cl [Compound 281] | < 500 nM |  |
| CNC(=O)CCNC(=O)[C@H](C)Nc1nc(-c2c[nH]c3ncc(Cl)cc23)ncc1F [Compound 467] | < 500 nM |  |
| N#Cc1ccnc(-c2c[nH]c3ncc(Cl)cc23)c1 [Compound 353] |  | 500 to 5000 nM |
| C[C@H](Nc1nc(-c2c[nH]c3ncc(N)cc23)ncc1F)c1ccc(F)cc1 [Compound 343] | 500 to 5000 nM |  |
| Clc1cnc2[nH]cc(-c3ncccn3)c2c1 [Compound 319] | 500 to 5000 nM |  |
| C[C@H](Nc1nc(-c2c[nH]c3ncc(CO)cc23)ncc1F)c1ccc(F)cc1 [Compound 334] | < 500 nM |  |
| c1ccc(CNc2cccc(-c3c[nH]c4ncc(-c5ccccc5)cc34)n2)cc1 [Compound 269] | < 500 nM |  |
| C#Cc1cc(-c2c[nH]c3ncc(Cl)cc23)nc(N2CCNCC2)c1 [Compound 412] | < 500 nM |  |
| CC[C@H](C)NC(=O)[C@H](C)Nc1nc(-c2c[nH]c3ncc(Cl)cc23)ncc1F [Compound 465] | < 500 nM |  |
| c1ccc(-c2cnc3[nH]cc(-c4cccc(NC5CCCCC5)n4)c3c2)cc1 [Compound 287] | < 500 nM |  |
| Nc1nc(-c2c[nH]c3ncc(Cl)cc23)ncc1F [Compound 332] | < 500 nM |  |
| CNc1cccc(-c2c[nH]c3ncccc23)n1 [Compound 272] | 500 to 5000 nM |  |
| C[C@H](Nc1nc(-c2c[nH]c3ncc(C(=O)N(C)C)cc23)ncc1F)c1ccc(F)cc1 [Compound 346] | 500 to 5000 nM |  |
